Measured values reported in patent publication US8921122B2, “System and method for quantitative assessment of biological migration behavior” (The General Hospital Corporation, priority 2008, dated 2014).

B1: P-selectin: Human recombinant P-selectin, cell adhesion molecule used to coat capture surface (R&D Systems ADP3-050) (protein, UniProt P16109 42-830, looked up)
P-selectin: WTYHYSTKAYSWNISRKYCQNRYTDLVAIQNKNEIDYLNKVLPYYSSYYWIGIRKNNKTWTWVGTKKALTNEAENWADNEPNNKRNNEDCVEIYIKSPSAPGKWNDEHCLKKKHALCYTASCQDMSCSKQGECLETIGNYTCSCYPGFYGPECEYVRECGELELPQHVLMNCSHPLGNFSFNSQCSFHCTDGYQVNGPSKLECLASGIWTNKPPQCLAAQCPPLKIPERGNMTCLHSAKAFQHQSSCSFSCEEGFALVGPEVVQCTASGVWTAPAPVCKAVQCQHLEAPSEGTMDCVHPLTAFAYGSSCKFECQPGYRVRGLDMLRCIDSGHWSAPLPTCEAISCEPLESPVHGSMDCSPSLRAFQYDTNCSFRCAEGFMLRGADIVRCDNLGQWTAPAPVCQALQCQDLPVPNEARVNCSHPFGAFRYQSVCSFTCNEGLLLVGASVLQCLATGNWNSVPPECQAIPCTPLLSPQNGTMTCVQPLGSSSYKSTCQFICDEGYSLSGPERLDCTRSGRWTDSPPMCEAIKCPELFAPEQGSLDCSDTRGEFNVGSTCHFSCDNGFKLEGPNNVECTTSGRWSATPPTCKGIASLPTPGVQCPALTTPGQGTMYCRHHPGTFGFNTTCYFGCNAGFTLIGDSTLSCRPSGQWTAVTPACRAVKCSELHVNKPIAMNCSNLWGNFSYGSICSFHCLEGQLLNGSAQTACQENGHWSTTVPTCQAGPLTIQEALTYFGGAVASTIGLIMGGTLLALLRKRFRQKDDGKCPLNPHSHLGTYGVFTNAAFDPSP
B2: E-selectin: Human recombinant E-selectin, cell adhesion molecule used to coat capture surface (R&D Systems ADP1-050) (protein, UniProt P16581 22-610, looked up)
E-selectin: WSYNTSTEAMTYDEASAYCQQRYTHLVAIQNKEEIEYLNSILSYSPSYYWIGIRKVNNVWVWVGTQKPLTEEAKNWAPGEPNNRQKDEDCVEIYIKREKDVGMWNDERCSKKKLALCYTAACTNTSCSGHGECVETINNYTCKCDPGFSGLKCEQIVNCTALESPEHGSLVCSHPLGNFSYNSSCSISCDRGYLPSSMETMQCMSSGEWSAPIPACNVVECDAVTNPANGFVECFQNPGSFPWNTTCTFDCEEGFELMGAQSLQCTSSGNWDNEKPTCKAVTCRAVRQPQNGSVRCSHSPAGEFTFKSSCNFTCEEGFMLQGPAQVECTTQGQWTQQIPVCEAFQCTALSNPERGYMNCLPSASGSFRYGSSCEFSCEQGFVLKGSKRLQCGPTGEWDNEKPTCEAVRCDAVHQPPKGLVRCAHSPIGEFTYKSSCAFSCEEGFELHGSTQLECTSQGQWTEEVPSCQVVKCSSLAVPGKINMSCSGEPVFGTVCKFACPEGWTLNGSAARTCGATGHWSGLLPTCEAPTESNIPLVAGLSAAGLSLLTLAPFLLWLRKCLRKAKKFVPASSCQSLESDGSYQKPSYIL

What was measured:
Type in all cases: cell-based, human
neutrophils [1] = experiment: Neutrophil migration assay in chemoattractant gradients (switching gradient device); settings: for average displacement in the direction of the gradient: 20 nM/450 μm fMLP or 10 nM/450 μm IL-8 gradient; for directional bias of migration profile (comparison): comparison between substrates / between chemoattractants; for Random motility coefficient (μ): initial 10 minutes of migration
Experimental: The gradient generating device used to study cell migration consists of two inlets, one outlet, and a cell loading port. In a similar manner as explained above, the device was primed after functionalizing the channel surface with adhesion molecules. Two syringes were prepared, one with only buffer containing 0.2% HSA while the other also containing the appropriate concentration of chemokine. Two chemoattractants, either recombinant human interleukin-8 (IL8, Catalog #208-IL, R&D Systems inc.) or N-formyl-methionyl-leucyl-phenylalanine (fMLP, Part # F3506, Sigma-Aldrich) were employed at 10 nM and 20 nM concentrations. For consistency, the two syringes were connected to the device such that chemokine gradient in the cell capture and migration chambers was always in the same orientation, from top (100%) to bottom (0%). After the device was primed, inlet ports were clamped, and the blood sample was loaded through the cell loading port as described in the following section.
A 1.25 mm lancet (Part #366579, Becton Dickinson) was used to prick a finger of a subject, and 10 μL whole blood was drawn with a pipette. Before withdrawing the blood, 70 μL of HBSS mixed with sodium heparin (Part #367871, Becton Dickinson) was injected into the open end of a loading needle using a pipette. The blood in the pipette was then directly mixed with the heparin solution inside the needle. A slight pressure was gradually applied to the open end of the needle using an index finger to push the blood sample through the tubing until a small drop of fluid appeared on the other end of the tubing. To avoid entrapment of air bubbles while connecting the tubing to the PDMS device, a drop of HBSS was always present in excess at the connecting ports of the device. The loose end of the sample tubing was held with forceps and carefully inserted in the PDMS port. Once a sealed connection was established, pressure was again applied to the loading needle to push samples through the cell capture and migration chamber. The inlet and outlet tubings were then clamped using binder clips for 5-10 minutes allowing cells to interact and bind with the glycoprotein molecules.
For the neutrophil capture characterization experiments, images for 7-10 sections (each 750 μm long, FIG. 2B) were acquired at 2 s interval using time lapse microscopy and at least 10 frames were captured. This was done to make sure that only adherent neutrophils were counted. An inverted Olympus microscope (Model # CKX41) and a CMOS color camera (Pixelink PLA742) were used to capture time lapse images in phase contrast mode. A 10× ocular and 10× objective magnification were used. The neutrophils captured in the chambers were counted manually in 7-10 distinct areas for each concentration. The average number of captured cells was calculated from three repeated experiments for each concentration and CAM. Captured time lapse images were converted to 8 bit and individual cells were tracked using Metamorph imaging software (Ver 4.1, Universal Imaging Corporation). Elapsed time and migration distance from the origin in the Y direction were derived for each cell and average displacements were calculated for the entire cell population in consideration. Migration curves representing the average distance traveled in the direction of increasing chemokine concentration against time were plotted and compared. It is notable that the slope of gradient along the flow path in the cell chamber gradually changes depending on the flow rates and the diffusivities of chemoattractants. Therefore, to maintain consistency, only the first upstream quarter of the cell chamber was considered for microscopic observation where the variations in gradient profile are minimal. […]

neutrophils [2] = experiment: Further migration analysis on P-selectin functionalized migration chamber with IL-8 gradient
Experimental: The surface of the migration chamber of a device as described herein was functionalized with P-selectin by exposure to a 10 nM solution of P-selectin for 10 minutes, followed by Hanks buffer wash for 5 minutes. Capillary blood was collected from the tip of a finger using a lancet. A volume of 10 μL (equivalent of a small droplet) was collected in 10 μL heparin 2×, mixed well by repeated pipetting, and introduced into the device. After filling the main channel, a slow flow rate of the blood was established by raising the inlet tube at 4-5 cm above the level of the device.
After 5 minutes, the blood inlet was clamped, and buffer was introduced from one of the gradient generators that had Hanks buffer solution at both inlets. After 1 minute of washing all the red blood cells through the device, only leukocytes were left on the P selectin coated surface of the migration chamber. Based on observed morphological characteristics, most of the remaining captured cells appeared to be neutrophils. After 5-10 minutes of washing using a buffer, a gradient of IL-8 (from 0 to 12 nM over 400 μm distance) was rapidly established using the second gradient chamber. […]
The displacement of neutrophils in the direction of the gradient was also measured as a function of time.

neutrophils [3] = experiment: Neutrophil capture from whole blood on CAM-coated microfluidic channels
Text: Three different adhesion molecules (P-selectin, E-selectin and fibronectin) were used to capture primary neutrophils from whole blood in the microfluidic channels. These substrates were chosen because of their significant role in neutrophil trafficking in vivo. To characterize the neutrophil capture efficiency, the cell capture chambers were coated with the adhesion molecules by flowing through solutions of six different concentrations of each adhesion molecule (concentrations shown in Table 1). Solutions were prepared by diluting the stock solution in sterile water or phosphate buffered saline (PBS) as advised by the vendors. These dilutions were loaded in the six cell capture chambers of the device and incubated for 1 h at room temperature. After one hour, P-selectin was aspirated and the flow chambers perfused with 2% HSA (Human Serum Albumin, Sigma-Aldrich Catalog # A5843) in Hank's buffer saline solution (HBSS, Sigma-Aldrich Catalog # H9269) to block non-specific binding sites and incubated for at least 15 minutes.
The PDMS device used to characterize cell capture consists of six distinct parallel channels each having an inlet and an outlet port (FIG. 2A). The channel dimensions of each segment of the capture device are 750×450×80 μm (L×W×H). The length of each segment was chosen such that it will conveniently fit in the field of view at 10× ocular and 10× objective magnification. 10 μL whole blood was mixed with 70 μL it heparinized HBSS solution and loaded in the cell chamber. Six 1 mL syringes (Part #309602, Becton, Dickinson and Company, Franklin Lakes, N.J.) were filled with HBSS containing 0.2% HSA. Most of the air trapped in the dead volume of the syringe was eliminated by tapping the inverted syringes. Syringes were then connected to tygon tubing approximately 10 to 12 inches long (Part # TGY-010-C, Small parts Inc.) through the needles (Part # NE-301PLC, Small parts Inc.). The syringes were placed on the syringe pump rack (PHD 2000, Harvard Apparatus, Holliston, Mass.), and the loose ends of the tubing were connected to the inlets of the device properly secured on the microscope stage. Smaller fragments of tubing were connected to the outlet ports. The pump was turned on at the rate of 4-5 μL/min, and the outlet tubings were clamped once the channels were filled with fluid, while leaving the pump running. This priming step was necessary to eliminate any trapped air pockets by continuing the inflow that pressurizes the air bubbles to diffuse through the porous PDMS matrix. Blood sample could be loaded as soon as all the air pockets were eliminated.
A 1.25 mm lancet (Part #366579, Becton Dickinson) was used to prick a finger of a subject, and 10 μL whole blood was drawn with a pipette. […]

neutrophils [4] = experiment: Neutrophil capture on CAM-coated channels primed with 20 nM fMLP; settings: CAM coated channel primed with 20 nM fMLP
Experimental: To identify whether the chemoattractant exposure has any significant effect on neutrophil capture from whole blood, the CAM coated channel was primed with 20 nM fMLP, and the cells were captured in a similar manner as described above. The effects of chemotactic priming of channels appeared significant from the statistical analysis (P<<0.05).

[5] = 50 μg/mL E-selectin surface, first 30 minutes
[6] = 200 μg/mL fibronectin surface, 30 minutes
[7] = substrate E-selectin, mean of about 15 cells
[8] = substrate Fibronectin, less than 10 cells
[9] = substrate P-selectin, mean of about 15 cells

Molecule	average displacement in the direction of the gradient (neutrophils [1]; [5])	average displacement in the direction of the gradient (neutrophils [1]; [6])	directional bias of migration profile (comparison) (neutrophils [1])	Random motility coefficient (μ) (neutrophils [1]; [7])	Random motility coefficient (μ) (neutrophils [1]; [8])	Random motility coefficient (μ) (neutrophils [1]; [9])	cells captured on primed vs. unprimed surface (neutrophils [4])	further results
CSCC[C@H](NC=O)C(=O)N[C@@H](CC(C)C)C(=O)N[C@@H](Cc1ccccc1)C(=O)O [fMLP, N-formyl-methionyl-leucyl-phenylalanine, reference compound]	50 μm	about 65 μm	greater directional bias than IL8	23.64 μm^2/minute	17.7 μm^2/minute	8.07 μm^2/minute	–	–
IL-8: recombinant human interleukin-8, chemoattractant (Catalog #208-IL, R&D Systems)	70 μm	35 μm	–	33.92 μm^2/minute	27.01 μm^2/minute	14.89 μm^2/minute	–	neutrophil migration response to gradient (neutrophils [2]; IL-8 gradient from 0 to 12 nM over 400 μm, P-selectin coated surface): sustained migration in the direction of the gradient
fibronectin	–	–	–	–	–	–	five times more cells	cells captured (neutrophils [3]; coated surfaces at 200 μg/mL concentration of priming solution, whole blood): 3-4 cells/mm^2
B1	–	–	more directionally biased and persistent	–	–	–	not significant	neutrophil activation by binding to capture surface (morphology) (neutrophils [3]; before chemokine introduced, P-selectin functionalized surface (FIGS. 7A-7C)): did not induce neutrophil activation; maximum capture efficiency (neutrophils [3]; surface coated with 25 μg/mL solution, whole blood): approximately 35 cells/mm^2; chemokinesis of neutrophils on functionalized substrate (neutrophils [2]; in the absence of IL-8): No significant chemokinesis
B2	–	–	–	–	–	–	approximately twice as many cells	maximum capture efficiency (neutrophils [3]; surface coated with 50 μg/mL solution, whole blood): ~15 cells/mm^2
